How the values were obtained:
[1] = target: T1, Gal4-RORγ-LBD (Homo sapiens, UniProt P51449); assay: Gal4-RORγ Luciferase Reporter Assay in HEK-293T Cells; type: cell-based; details: HEK-293 cells; for Gal4-RORγ Assay Max Response: maximum response
T1 construct: expressed in transfected cells
T1 sequence (P51449 269-508 limits assumed): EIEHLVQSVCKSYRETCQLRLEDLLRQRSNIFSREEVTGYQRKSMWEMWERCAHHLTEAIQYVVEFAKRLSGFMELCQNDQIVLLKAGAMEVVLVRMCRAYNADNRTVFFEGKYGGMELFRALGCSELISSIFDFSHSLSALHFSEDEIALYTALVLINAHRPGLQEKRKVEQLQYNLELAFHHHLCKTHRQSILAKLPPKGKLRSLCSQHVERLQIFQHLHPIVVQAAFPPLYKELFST
Outline: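 Max Response was taken as the upper plateau of a 4-parameter logistic fit of luciferase signal, normalized to 100 for wells without ursolic acid or compound. Transiently Gal4-RORγ-LBD/Gal4-luc transfected HEK-293 cells carrying […] ursolic acid were incubated with test compounds (0.2% DMSO) overnight at 37 °C and read with One-Glo.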

[2] = target: T2, RORγ-LBD (Homo sapiens, UniProt P51449); assay: RORγ-Ligand Binding Domain (LBD) TR-FRET Assay; type: biochemical; details: for TR-FRET Assay Max Response: maximum response;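 on TR-FRET Assay Max Response: 665/615 nm signal ratio set to 100 without ursolic acid or test compound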
T2 construct: made in house; host or cells: SF9 cells (baculovirus); used as diluted lysate
T2 sequence (P51449 269-508 limits assumed): T1 sequence (P51449 269-508 limits assumed)
Outline: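 Compounds, diluted in DMSO and then in assay buffer (1% DMSO final), were combined with His-tagged RORγ-LBD lysate at roughly 3 nM final and a 200 nM biotinylated SRC1 LXXLL peptide. Ursolic acid was included at 2 μM final. Coactivator recruitment was detected by TR-FRET.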

[3] = luciferase reporter, with ursolic acid
[4] = luciferase reporter, in presence of ursolic acid

EC50 [1, 3] [nM] | EC50 ([2]; RORγ-LBD TR-FRET) [nM] | Compound | other results
500 to 5000 | < 500 | CCOc1nn(CC)cc1S(=O)(=O)N1C[C@H](CCC(=O)OC)Oc2ccc(/C=C/c3c(Cl)cccc3C(C)(F)F)cc21 [Example 89FF, methyl (S,E)-3-(6-(2-chloro-6-(1,1-difluoroethyl)styryl)-4-((3-ethoxy-1-ethyl-1H-pyrazol-4-yl)sulfonyl)-3,4-dihydro-2H-benzo[b][1,4]oxazin-2-yl)propanoate] | –
< 500 | < 500 | CCOc1nn(CC)cc1S(=O)(=O)N1C[C@H](CCC(=O)O)Oc2ccc(/C=C/c3ccccc3SC)cc21 [Example 89AU, (S,E)-3-(4-((3-ethoxy-1-ethyl-1H-pyrazol-4-yl)sulfonyl)-6-(2-(methylthio)styryl)-3,4-dihydro-2H-benzo[b][1,4]oxazin-2-yl)propanoic acid] | –
< 500 | < 500 | COc1cccc(C(F)(F)F)c1/C=C/c1ccc2c(c1)N(S(=O)(=O)c1cccc(C(F)(F)F)c1)C[C@H](CCC(=O)O)O2 [Example 89ER, (S,E)-3-(6-(2-methoxy-6-(trifluoromethyl)styryl)-4-((3-(trifluoromethyl)phenyl)-sulfonyl)-3,4-dihydro-2H-benzo[b][1,4]oxazin-2-yl)propanoic acid] | –
500 to 5000 | < 500 | O=C(O)CC[C@H]1CN(S(=O)(=O)c2cccc(OC(F)F)c2)c2cc(/C=C/c3c(F)cccc3Cl)ccc2O1 [Example 89A, (S,E)-3-(6-(2-chloro-6-fluorostyryl)-4-((3-(difluoromethoxy)phenyl)sulfonyl)-3,4-dihydro-2H-benzo[b][1,4]oxazin-2-yl)propanoic acid] | –
500 to 5000 | < 500 | COC(=O)CC[C@H]1CN(S(=O)(=O)c2cc(C(F)(F)F)cnc2OCCO)c2cc(C=C(C)C)ccc2O1 [Example 95AD, methyl (S)-3-(4-((2-(2-hydroxyethoxy)-5-(trifluoromethyl)pyridin-3-yl)sulfonyl)-6-(2-methylprop-1-en-1-yl)-3,4-dihydro-2H-benzo[b][1,4]oxazin-2-yl)propanoic acid] | –
> 10000 | > 10000 | CCc1nc(S(=O)(=O)N2C[C@H](CCC(=O)O)Oc3ccc(/C=C/c4c(F)cccc4Cl)cc32)c[nH]1 [Example 89DW, (S,E)-3-(6-(2-chloro-6-fluorostyryl)-4-((2-ethyl-1H-imidazol-4-yl)sulfonyl)-3,4-dihydro-2H-benzo[b][1,4]-oxazin-2-yl)propanoic acid] | –
> 10000 | < 500 | Cc1ccc(F)c(/C=C/c2ccc3c(c2)N(S(=O)(=O)c2cccc(C(F)(F)F)c2)C[C@H](CCC(=O)O)O3)c1 [Example 89CA, (S,E)-3-(6-(2-fluoro-5-methylstyryl)-4-((3-(trifluoromethyl)phenyl)sulfonyl)-3,4-dihydro-2H-benzo[b][1,4]oxazin-2-yl)propanoic acid] | –
500 to 5000 | < 500 | C[C@H](O)COc1ncc(C(F)(F)F)cc1S(=O)(=O)N1C[C@H](CCC(=O)O)Oc2ccc(/C=C/c3c(F)cccc3Cl)cc21 [Example 89FM, 3-((S)-6-((E)-2-chloro-6-fluorostyryl)-4-((2-((S)-2-hydroxypropoxy)-5-(trifluoromethyl)pyridin-3-yl)sulfonyl)-3,4-dihydro-2H-benzo[b][1,4]oxazin-2-yl)propanoic acid] | –
500 to 5000 | < 500 | O=C(O)CC[C@H]1CN(S(=O)(=O)c2cccc(C(F)(F)F)c2)c2cc(/C=C/c3ncccc3F)ccc2O1 [Example 89CE, (S,E)-3-(6-(2-(3-fluoropyridin-2-yl)vinyl)-4-((3-(trifluoromethyl)phenyl)sulfonyl)-3,4-dihydro-2H-benzo[b][1,4]oxazin-2-yl)propanoic acid] | –

The next lines start with the molecule.

Compound | EC50 [1, 3] [nM] | EC50 ([2]; RORγ-LBD TR-FRET) [nM] | other results
C/C(=C\c1ccc2c(c1)N(S(=O)(=O)c1ccc(C)c(C(F)(F)F)c1)C[C@H](CCC(=O)O)O2)c1c(F)cccc1Cl [Example 86AO, (S,E)-3-(6-(2-(2-chloro-6-fluorophenyl)prop-1-en-1-yl)-4-((4-methyl-3-(trifluoromethyl)-phenyl)sulfonyl)-3,4-dihydro-2H-benzo[b][1,4]oxazin-2-yl)propanoic acid] | < 500 | < 500 | –
COc1nn2c(c1S(=O)(=O)N1C[C@H](CCC(=O)O)Oc3ccc(/C=C(\C)c4c(F)cccc4Cl)cc31)CCCC2 [Example 86K, (S,E)-3-(6-(2-(2-chloro-6-fluorophenyl)prop-1-en-1-yl)-4-((2-methoxy-4,5,6,7-tetrahydropyrazolo[1,5-a]pyridin-3-yl)sulfonyl)-3,4-dihydro-2H-benzo[b][1,4]oxazin-2-yl)propanoic acid] | < 500 | < 500 | –
C/C(=C\c1cc2c(cc1C)O[C@@H](CCC(=O)O)CN2S(=O)(=O)c1cccc(OC(F)F)c1)c1c(F)cccc1Cl [Example 54, (S,E)-3-(6-(2-(2-Chloro-6-fluorophenyl)prop-1-en-1-yl)-4-((3-(difluoromethoxy)phenyl)sulfonyl)-7-methyl-3,4-dihydro-2H-benzo[b][1,4]oxazin-2-yl)propanoic acid] | 500 to 5000 | < 500 | –
C/C(=C\c1ccc2c(c1)N(S(=O)(=O)c1cccc(OC(F)F)c1)C[C@H](CCC(=O)O)O2)c1c(F)cccc1Cl [Example 86O, (S,E)-3-(6-(2-(2-chloro-6-fluorophenyl)prop-1-en-1-yl)-4-((3-(difluoromethoxy)phenyl)-sulfonyl)-3,4-dihydro-2H-benzo[b][1,4]oxazin-2-yl)propanoic acid] | 500 to 5000 | < 500 | –
C/C(=C\c1ccc2c(c1)N(S(=O)(=O)c1cccc(C(F)(F)F)c1C)C[C@H](CCC(=O)O)O2)c1c(F)cccc1Cl [Example 86AM, (S,E)-3-(6-(2-(2-chloro-6-fluorophenyl)prop-1-en-1-yl)-4-((2-methyl-3-(trifluoromethyl)-phenyl)sulfonyl)-3,4-dihydro-2H-benzo[i,4]oxazin-2-yl)propanoic acid] | 500 to 5000 | < 500 | –
O=C(O)CC[C@H]1CN(S(=O)(=O)c2cccc(C(F)(F)F)c2)c2cc(/C=C3\CCOc4ccccc43)ccc2O1 [Example 38B, (S,E)-3-(6-(chroman-4-ylidenemethyl)-4-((3-(trifluoromethyl)-phenyl)sulfonyl)-3,4-dihydro-2H-benzo[b][1,4]oxazin-2-yl)propanoic acid] | 500 to 5000 | < 500 | –
COC(=O)CO[C@@H]1Cc2ccc(OCc3c(F)cccc3Cl)cc2N(S(=O)(=O)c2cccc(C(F)(F)F)c2)C1 [Example 173A] | – | – | EC50 [1, 4]: < 500 nM; EC50 ([2]; RORγ-LBD TR-FRET assay): < 500 nM
C/C(=C\c1ccc2c(c1)N(S(=O)(=O)c1cccc(C(F)(F)F)c1)C[C@H](CCN1CCC(C(=O)O)CC1)O2)c1c(F)cccc1Cl [Example 122, (S,E)-1-(2-(6-(2-(2-Chloro-6-fluorophenyl)prop-1-en-1-yl)-4-((3-(trifluoromethyl)phenyl)sulfonyl)-3,4-dihydro-2H-benzo[b][1,4]oxazin-2-yl)ethyl)piperidine-4-carboxylic acid] | – | – | EC50 [1, 4]: < 500 nM; Gal4-RORγ Assay Max Response [1, 4]: ** (a value in the range of greater than 90 to 150); EC50 ([2]; RORγ-LBD TR-FRET assay): < 500 nM; TR-FRET Assay Max Response ([2]; RORγ-LBD TR-FRET assay): *** (a value in the range of greater than 150 to 200)
COc1cc(S(=O)(=O)N2c3cc(/C=C/c4c(F)cccc4Cl)ccc3C[C@@H](O)[C@H]2C)ccc1F (racemic) [Example 168, (2R,3R)-7-((E)-2-Chloro-6-fluorostyryl)-1-((4-fluoro-3-methoxyphenyl)sulfonyl)-2-methyl-1,2,3,4-tetrahydroquinolin-3-ol] | – | – | EC50 [1, 4]: < 500 nM; Gal4-RORγ Assay Max Response [1, 4]: * (a value in the range of 30 to 90); EC50 ([2]; RORγ-LBD TR-FRET assay): < 500 nM; TR-FRET Assay Max Response ([2]; RORγ-LBD TR-FRET assay): *** (a value in the range of greater than 150 to 200)
C/C(=C\c1ccc2c(c1)N(S(=O)(=O)c1cc(Cl)cnc1OCCO)C[C@H](CCC(=O)O)O2)c1c(F)cccc1Cl [Example 70, (S,E)-3-(4-((5-Chloro-2-(2-hydroxyethoxy)pyridin-3-yl)sulfonyl)-6-(2-(2-chloro-6-fluorophenyl)prop-1-en-1-yl)-3,4-dihydro-2H-benzo[b][1,4]oxazin-2-yl)propanoic acid] | < 500 | < 500 | –
O=C(O)CC[C@H]1CN(S(=O)(=O)c2cc(C3CC3)cnc2OCCO)c2cc(/C=C/c3c(F)cccc3Cl)ccc2O1 [Example 89FO, (S,E)-3-(6-(2-chloro-6-fluorostyryl)-4-((5-cyclopropyl-2-(2-hydroxyethoxy)pyridin-3-yl)sulfonyl)-3,4-dihydro-2H-benzo[b][1,4]oxazin-2-yl)propanoic acid] | – | – | EC50 ([1]; ursolic acid present, luciferase readout): < 500 nM; EC50 ([2]; with 2 μM ursolic acid (RORγ antagonist), highest test concentration 10 μM): < 500 nM
COc1cc(S(=O)(=O)N2c3cc(OC4CCc5ccccc54)ccc3C[C@@H](C(=O)O)[C@H]2C)ccc1F (mixture of isomers) [Example 22, (2R,3R)-7-((2,3-Dihydro-1H-inden-1-yl)oxy)-1-((4-fluoro-3-methoxy-phenyl)sulfonyl)-2-methyl-1,2,3,4-tetrahydroquinoline-3-carboxylic acid] | 500 to 5000 | < 500 | –
